{"source": "PubChem BioAssay (NCI)", "assay_in_all_cases": "growth of human tumour cells (NCI), 48 h", "key": {"[1]": {"system": "RPMI-8226 leukemia"}, "[2]": {"system": "NCI-H522 lung"}, "[3]": {"system": "ACHN renal"}, "[4]": {"system": "SNB-19 CNS"}, "[5]": {"system": "LOX IMVI melanoma"}, "[6]": {"system": "OVCAR-3 ovarian"}, "[7]": {"system": "DU-145 prostate"}, "[8]": {"system": "SK-MEL-28 melanoma"}, "[9]": {"system": "RXF 393 renal"}, "[10]": {"system": "NCI-H460 lung"}, "[11]": {"system": "NCI/ADR-RES ovarian"}, "[12]": {"system": "BT-549 breast"}, "[13]": {"system": "SW-620 colon"}, "[14]": {"system": "HS 578T breast"}, "[15]": {"system": "OVCAR-4 ovarian"}, "[16]": {"system": "SN12C renal"}, "[17]": {"system": "A549 NSCLC"}, "[18]": {"system": "HCT-15 colon"}, "[19]": {"system": "OVCAR-8 ovarian"}, "[20]": {"system": "COLO 205 colon"}}, "note": "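Dose response: 5 concentrations. Exposure: 48 h. Format: 96-well plates. Endpoint: linear interpolation; highest concentration if not reached. TGI is the concentration that stops growth completely.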", "data": [{"smiles": "O=C(NC(Nc1ccc(F)cc1)(C(F)(F)F)C(F)(F)F)C(C(F)(F)F)C(F)(F)F", "values": [{"measurement": "TGI", "setting": "[1]", "result": 60, "unit": "µM"}, {"measurement": "TGI", "setting": "[2]", "result": "> 89.6", "unit": "µM"}, {"measurement": "TGI", "setting": "[3]", "result": "> 100", "unit": "µM"}, {"measurement": "TGI", "setting": "[4]", "result": "> 100", "unit": "µM"}, {"measurement": "TGI", "setting": "[5]", "result": "> 100", "unit": "µM"}, {"measurement": "TGI", "setting": "[6]", "result": "> 100", "unit": "µM"}, {"measurement": "TGI", "setting": "[7]", "result": "> 100", "unit": "µM"}, {"measurement": "TGI", "setting": "[8]", "result": "> 100", "unit": "µM"}, {"measurement": "TGI", "setting": "[9]", "result": "> 100", "unit": "µM"}, {"measurement": "TGI", "setting": "[10]", "result": "> 100", "unit": "µM"}, {"measurement": "TGI", "setting": "[11]", "result": "> 100", "unit": "µM"}, {"measurement": "TGI", "setting": "[12]", "result": "> 100", "unit": "µM"}, {"measurement": "TGI", "setting": "[13]", "result": "> 100", "unit": "µM"}, {"measurement": "TGI", "setting": "[14]", "result": "> 90.5", "unit": "µM"}, {"measurement": "TGI", "setting": "[15]", "result": "> 43.9", "unit": "µM"}, {"measurement": "TGI", "setting": "[16]", "result": "> 100", "unit": "µM"}, {"measurement": "TGI", "setting": "[17]", "result": "> 100", "unit": "µM"}, {"measurement": "TGI", "setting": "[18]", "result": "> 100", "unit": "µM"}, {"measurement": "TGI", "setting": "[19]", "result": "> 100", "unit": "µM"}, {"measurement": "TGI", "setting": "[20]", "result": "> 100", "unit": "µM"}]}, {"smiles": "CO[C@@H]1C[C@H]2N3CC[C@@]2(c2cc4c(cc2C3)OCO4)[C@H]2O[C@@H]12", "values": [{"measurement": "TGI", "setting": "[1]", "result": "> 100", "unit": "µM"}, {"measurement": "TGI", "setting": "[2]", "result": "> 100", "unit": "µM"}, {"measurement": "TGI", "setting": "[3]", "result": "> 100", "unit": "µM"}, {"measurement": "TGI", "setting": "[4]", "result": "> 100", "unit": "µM"}, {"measurement": "TGI", "setting": "[5]", "result": "> 100", "unit": "µM"}, {"measurement": "TGI", "setting": "[6]", "result": "> 100", "unit": "µM"}, {"measurement": "TGI", "setting": "[7]", "result": "> 100", "unit": "µM"}, {"measurement": "TGI", "setting": "[8]", "result": "> 100", "unit": "µM"}, {"measurement": "TGI", "setting": "[9]", "result": "> 100", "unit": "µM"}, {"measurement": "TGI", "setting": "[10]", "result": "> 100", "unit": "µM"}, {"measurement": "TGI", "setting": "[11]", "result": "> 100", "unit": "µM"}, {"measurement": "TGI", "setting": "[12]", "result": "> 100", "unit": "µM"}, {"measurement": "TGI", "setting": "[13]", "result": "> 100", "unit": "µM"}, {"measurement": "TGI", "setting": "[14]", "result": "> 100", "unit": "µM"}, {"measurement": "TGI", "setting": "[15]", "result": "> 100", "unit": "µM"}, {"measurement": "TGI", "setting": "[16]", "result": "> 100", "unit": "µM"}, {"measurement": "TGI", "setting": "[17]", "result": "> 100", "unit": "µM"}, {"measurement": "TGI", "setting": "[18]", "result": "> 100", "unit": "µM"}, {"measurement": "TGI", "setting": "[19]", "result": "> 100", "unit": "µM"}, {"measurement": "TGI", "setting": "[20]", "result": 2.24, "unit": "µM"}]}]}
